According to patent publication EP4775574A1, “FURAN RING-CONTAINING COMPOUND, PHARMACEUTICAL COMPOSITION THEREOF, AND USE THEREOF” (Wuhan Xirui Pharmaceutical Technology Co., Ltd, priority 2023, dated 2025):
Where two headings read alike, the source gives them in different places.

How the values were obtained:
hNav1.8 = target: T1, hNav1.8 (Homo sapiens, UniProt Q9Y5Y9); test: Manual patch-clamp IC50 on hNav1.8 channel current (HEK293 hNav1.8/β3); format: cell-based; details: HEK293 stably expressing hNav1.8/β3, n = 2, read-out: Inhibitory activity (IC50)
T1 construct: host or cells: HEK293
T1 sequence (Q9Y5Y9 whole entry): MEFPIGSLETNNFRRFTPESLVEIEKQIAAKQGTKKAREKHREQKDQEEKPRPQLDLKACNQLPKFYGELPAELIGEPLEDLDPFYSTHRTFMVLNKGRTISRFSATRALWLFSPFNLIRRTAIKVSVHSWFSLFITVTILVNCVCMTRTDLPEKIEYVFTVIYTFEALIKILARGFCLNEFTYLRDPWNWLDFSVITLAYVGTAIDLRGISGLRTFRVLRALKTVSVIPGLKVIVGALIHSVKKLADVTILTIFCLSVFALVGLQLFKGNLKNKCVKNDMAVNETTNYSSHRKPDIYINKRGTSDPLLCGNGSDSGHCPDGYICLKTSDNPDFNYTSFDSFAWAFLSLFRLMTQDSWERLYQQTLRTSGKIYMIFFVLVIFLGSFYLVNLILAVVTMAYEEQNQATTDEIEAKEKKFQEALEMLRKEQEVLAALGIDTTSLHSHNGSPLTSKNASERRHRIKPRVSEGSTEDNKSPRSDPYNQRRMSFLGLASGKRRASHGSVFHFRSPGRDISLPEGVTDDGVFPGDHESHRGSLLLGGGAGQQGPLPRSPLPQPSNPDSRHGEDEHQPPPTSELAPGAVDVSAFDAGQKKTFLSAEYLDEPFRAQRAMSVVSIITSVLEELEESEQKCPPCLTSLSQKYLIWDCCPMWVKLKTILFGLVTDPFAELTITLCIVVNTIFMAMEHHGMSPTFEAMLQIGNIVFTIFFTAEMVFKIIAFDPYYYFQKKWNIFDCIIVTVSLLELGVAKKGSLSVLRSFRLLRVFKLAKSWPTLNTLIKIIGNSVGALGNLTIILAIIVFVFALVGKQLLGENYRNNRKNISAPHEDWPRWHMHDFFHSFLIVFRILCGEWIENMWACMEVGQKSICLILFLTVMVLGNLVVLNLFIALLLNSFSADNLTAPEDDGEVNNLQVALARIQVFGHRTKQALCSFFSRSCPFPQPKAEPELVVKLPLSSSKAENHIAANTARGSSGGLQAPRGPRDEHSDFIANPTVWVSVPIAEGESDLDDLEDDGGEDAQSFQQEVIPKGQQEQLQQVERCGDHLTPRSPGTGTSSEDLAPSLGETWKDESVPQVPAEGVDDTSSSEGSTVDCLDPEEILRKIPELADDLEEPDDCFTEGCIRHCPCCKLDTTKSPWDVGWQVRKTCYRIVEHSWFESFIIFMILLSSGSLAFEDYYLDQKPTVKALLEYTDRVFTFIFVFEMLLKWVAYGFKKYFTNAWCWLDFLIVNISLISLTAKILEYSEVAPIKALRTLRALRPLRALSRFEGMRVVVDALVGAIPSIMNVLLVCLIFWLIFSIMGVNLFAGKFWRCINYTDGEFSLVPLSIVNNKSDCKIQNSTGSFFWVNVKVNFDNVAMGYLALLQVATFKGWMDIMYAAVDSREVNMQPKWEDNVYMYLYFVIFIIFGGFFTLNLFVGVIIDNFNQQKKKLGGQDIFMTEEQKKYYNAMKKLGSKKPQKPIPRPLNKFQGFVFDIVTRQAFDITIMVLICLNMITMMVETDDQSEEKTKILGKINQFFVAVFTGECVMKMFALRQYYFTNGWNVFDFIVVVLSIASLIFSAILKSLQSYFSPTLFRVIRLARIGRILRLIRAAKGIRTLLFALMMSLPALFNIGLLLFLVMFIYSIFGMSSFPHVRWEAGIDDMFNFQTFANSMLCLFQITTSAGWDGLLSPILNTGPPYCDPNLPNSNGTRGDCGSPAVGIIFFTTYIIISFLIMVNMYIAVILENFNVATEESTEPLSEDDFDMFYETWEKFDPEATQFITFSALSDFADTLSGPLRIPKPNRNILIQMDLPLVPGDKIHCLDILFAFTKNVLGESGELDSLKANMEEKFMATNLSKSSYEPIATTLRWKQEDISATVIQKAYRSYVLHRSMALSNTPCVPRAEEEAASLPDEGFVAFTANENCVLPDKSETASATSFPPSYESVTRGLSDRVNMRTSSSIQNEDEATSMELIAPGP
T1 sequence (Q9NY72 25-215 partner limits assumed): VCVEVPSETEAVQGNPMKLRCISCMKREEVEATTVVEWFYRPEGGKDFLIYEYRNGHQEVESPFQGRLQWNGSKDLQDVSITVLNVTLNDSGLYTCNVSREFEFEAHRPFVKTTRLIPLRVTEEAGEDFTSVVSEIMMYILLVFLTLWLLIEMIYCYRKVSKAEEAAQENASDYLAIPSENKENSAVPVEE
Experimental: This experiment was performed by detecting the influence of 5 concentrations of the compound or a single point or two concentration points on the hNav1.8 channel current, the dose-response curve of the compound was obtained, and the IC50 was calculated. This experiment was conducted to include two parallel sample determinations.
• 1) Cells: The HEK293 cell line that stably expressed the hNav1.8/β3 ion channel was prepared in-house by the Biology Department of Pharmaron (Beijing) Co., Ltd. (The lentiviral vectors that respectively expressed human Nav1.8 and β3 were transduced into HEK293, and it was prepared after screening. Specific reference: Proc Natl Acad Sci U S A. 2022 Jul 26;119(30):e2208211119. doi: 10.1073/pnas.2208211119. and the Cell Lines / BSYS CHO NaV1.8/β3 Cell Line manual.). The cell line was cultured in a medium containing 90% DMEM, 10% fetal bovine serum, 100 U/mL penicillin-streptomycin solution, 0.75 µg/mL puromycin, and 100 µg/mL hygromycin. When the cell density had grown to 40% to 80% of the bottom area of the culture dish, digestion was performed with trypsin, and passage was carried out three times per week. […]

[1] = Pharmacokinetic determination in KM mice; format: in vivo
Experimental: Using KM mice as test animals, the pharmacokinetic behavior of the compounds in the examples in mouse plasma after administration by gavage at a dose of 10 mg/kg or by intravenous injection at a dose of 1 mg/kg was studied.
Male SPF-grade KM mice, with body weight (20 ± 2) g.
Drug preparation for the intragastric administration group: The drug concentration was prepared as 1 mg/mL, and the preparation solvent was Tween80 + 0.5% MC (v/v 1:99).
Drug preparation for the intravenous administration group: The drug concentration was prepared as 0.2 mg/mL, and the preparation solvent was 5% DMA + 5% Solutol HS-15 + 90% normal saline.
Intragastric administration group: The administration dose was 10 mg/kg, and the administration volume was 10 mL/kg.
Intravenous administration group: The administration dose was 1 mg/kg, and the administration volume was 5 mL/kg.
Intragastric administration: Blood was collected from mice before administration (0 h) and after administration at 0, 0.25 h, 0.5 h, 1 h, 2 h, 4 h, 6 h, 8 h, 10 h, and 24 h. Intravenous injection: Blood was collected before administration (0 h) and after administration at 5, 15, 30 min, 1, 2, 4, 6, 8, and 24 h.
Blood, approximately 0.1 mL, was collected by retro-orbital puncture and placed into EDTA-K2 anticoagulant tubes with labels. After blood collection, the tubes were gently and completely inverted three times to mix with the anticoagulant. The samples were then immediately placed in an ice-water bath and centrifuged at 4500 rpm for 10 min at 4°C. After centrifugation, the plasma was promptly aliquoted into EP tubes with corresponding labels and stored in a -80°C freezer.
After administration, 20 µL of mouse plasma was taken and placed into a 96-deep-well plate pre-filled with 20 µL of internal standard working solution. Methanol (400 µL) as the precipitating agent was added, vortexed for 10 min, and centrifuged at 4000 rpm for 15 min. A supernatant of 200 µL was transferred into another 96-deep-well plate pre-filled with 200 µL of ultrapure water, vortexed for 5 min, and centrifuged at 4000 rpm for 3 min. A supernatant of 5 µL was taken for LC-MS/MS analysis of plasma drug concentration.
The main pharmacokinetic parameters were calculated by WinNonlin 7.0, and the pharmacokinetic experimental results of mice are shown in Table 5 below. Table 5: Pharmacokinetic experimental results of mice

[2] = male, KM, mouse, in vivo, iv, 1 mg/kg
[3] = male, KM, mouse, in vivo, po, 10 mg/kg

Structure (SMILES) | IC50 (hNav1.8) | bioavailability ([1]; male, KM, mouse, in vivo) | AUC(0-t) [1, 2] | Clearance CL/F [1, 2] | Cmax [1, 2] | Vd [1, 2] | half-life [1, 2] | AUC(0-t) [1, 3] | Cmax [1, 3] | Tmax [1, 3] | half-life [1, 3] | Peak concentration Cmax/C0 ([1]; KM mice, i.g. 10 mg/kg) | Peak concentration Cmax/C0 ([1]; KM mice, i.v. 1 mg/kg) | Vd ([1]; mouse, in vivo, iv, KM mice, i.v. 1 mg/kg, read-out: Apparent distribution Vss) | AUC(0-t) ([1]; mouse, in vivo, iv, KM mice, i.v. 1 mg/kg, read-out: Area under the curve AUC0-t) | half-life ([1]; mouse, in vivo, iv, KM mice, i.v. 1 mg/kg, read-out: Half-life t1/2 (converted)) | bioavailability ([1]; mouse, in vivo, po, KM mice, i.g. 10 mg/kg vs i.v. 1 mg/kg, read-out: Bioavailability) | AUC(0-t) ([1]; mouse, in vivo, po, KM mice, i.g. 10 mg/kg, read-out: Area under the curve AUC0-t) | half-life ([1]; mouse, in vivo, po, KM mice, i.g. 10 mg/kg, read-out: Half-life t1/2 (converted)) | Tmax ([1]; mouse, in vivo, po, KM mice, i.g. 10 mg/kg, read-out: Time to peak Tmax)
COc1c([C@H]2[C@H](C(=O)Nc3ccnc(C(N)=O)c3)O[C@@](C)(C(F)(F)F)[C@H]2C)ccc(F)c1F [Reference compound, reference compound] | 0.297 nM | 44.2% | 1020 ng·h/mL | 15.222 mL/min/kg | 621 ng/mL | 2.48 L/kg | 1.99 h | 4530 ng·h/mL | 1330 ng/mL | 1 h | 1.97 h |  |  |  |  |  |  |  |  | 
C[C@H]1[C@@H](c2ccc(F)c(F)c2OC2COC2)[C@H](C(=O)Nc2ccc(F)c(C(=N)NO)c2)O[C@@]1(C)C(F)(F)F [Example 11] | 0.229 nM |  |  |  |  |  |  |  |  |  |  | 3413.33 ng/mL | 612.43 ng/mL | 1.4 L/kg | 1060 ng·h/mL | 1.44 h | 71.4% | 7540 ng·h/mL | 1.37 h | 0.25 h
